# Columns and labels:
# Rab10 pThr73 [1] = assay: Rab10 Thr73 dephosphorylation (immunoblot) in LRRK2^G2019S MEFs; type: cell-based, mouse; settings: Mus musculus, read-out: pRab10 inhibited in LRRK2^G2019S MEFs
# Rab10 pThr73 [2] = assay: Rab10 Thr73 dephosphorylation (immunoblot) in WT MEFs; type: cell-based, mouse; settings: Mus musculus, read-out: pRab10 inhibited in WT MEFs
# Experimental: (§1) Western blot degradation assays for the LRRK2 protacs were performed with WT and PD-associated LRRK2 [G2019S] mouse embryonic fibroblasts (MEFs). The second-generation PROTACs were tested in parallel with the first generation PROTACs SD75, SD82, and SD100. The compounds were tested at 33 nM or […] concentrations for 4 hours or 24 hours, running two biological replicates per condition and achieving quantifications representative of both replicates. Analysis by quantitative immunoblotting was performed with readouts of the total LRRK2 (antibody recognizes epitope in C-terminus of protein), Rab10 pThr73 (physiological substrate) and LRRK2 pSer935 (biomarker phosphorylation site).
# (§2) Primary MEFs were generated as described in a previous study (Wiggin et al., Mol. Cell Biol. 2002 April; 22(8):2871-81.). Briefly, the uterine horn was collected from adult female mice at day E12.5 and transferred to a 10 cm tissue culture dish containing cold PBS. Two forceps were used to tear the yolk sacs to isolate each embryo. Forceps were cleaned thoroughly with 70% ethanol between each embryo isolation. The embryos were culled, and a tissue piece was collected in a PCR tube for genotyping. The red tissue of the embryo, which grows to become the heart and liver, was removed. The remainder of the embryo was minced with a scalpel blade and incubated with 7.5 ml trypsin-EDTA solution for 10 minutes in a 37° C. tissue culture CO2 incubator. The dish was removed from the incubator and checked under a light microscope for single cells. 7.5 ml complete media was added to the trypsinised cells, and the cell suspension was transferred to a 15 ml Falcon tube, centrifuged at 1200 rpm for 5 minutes at room temperature. The trypsin was aspirated, the cell pellet was resuspended in 5 ml fresh complete media, and the cell suspension was plated in a 60 mm tissue culture dish and incubated in a 37° C., 5% CO2 tissue culture incubator. The MEFs at this stage were considered as passage 0 and were passaged and expanded for experimental use once the genotype was confirmed by allelic sequencing and immunoblotting. MEFs were cultured in Dulbecco's modified Eagle medium (DMEM) containing 10% (v/v) fetal bovine serum (FBS), 2 mM L-glutamine, 100 U/ml penicillin, and 100 μg/ml streptomycin supplemented with 1× non-essential amino acids and 1 mM sodium pyruvate.
# Culturing and passaging of adherent cell lines were carried out using aseptic technique in CL1 or CL2 (for PBMC isolation) biological safety cabinets. All cells were incubated in a 37° C. incubator with 5% CO2. Cell lines were regularly tested for mycoplasma contamination. For western blot assay, the cells were seeded in 6-well plates. After treating with testing compounds at indicated concentrations and time period, the media was removed and the cells were washed with PBS and lysed in 100 μl ice-cold complete lysis buffer containing 50 mM Tris-HCl pH 7.4, 1 mM EGTA, 10 mM 2-glycerophosphate, 50 mM sodium fluoride, 5 mM sodium pyrophosphate, 270 mM sucrose, supplemented with 1 μg/ml microcystin-LR, 1 mM sodium orthovanadate, complete EDTA-free protease inhibitor cocktail (Roche) and 1% (v/v) Triton X-100. The cells were immediately placed on ice and were scraped and collected into 1.5 ml Eppendorf tubes. Cell lysates were incubated on ice for 10 minutes prior to centrifugation at 15,000 g at 4° C. for 15 minutes. The cell pellet was discarded, and supernatant was collected for analysis by quantitative immunoblotting. For long term storage, the supernatant was flash frozen and stored at −80° C. Protein concentrations of cell lysates were determined using the Bradford assay.
# Cell lysates containing a quarter of a volume of 4× NuPAGE LDS sample buffer (NP0007) supplemented with 5% β-mercaptoethanol, were heated at 95° C. for 5 minutes. […]
# Rab10 pThr73 [3] = assay: Rab10 Thr73 dephosphorylation (immunoblot) in LRRK2^G2019S MEFs; type: cell-based; settings: Mus musculus, read-out: pRab10 inhibited in LRRK2^G2019S MEFs
# Experimental: as §1, with “The” for “Western blot degradation assays for the LRRK2 protacs were performed with WT and PD-associated LRRK2 [G2019S] mouse embryonic fibroblasts (MEFs). The”
# as §2
# Culturing and passaging of adherent cell lines were carried out using aseptic technique in CL1 or CL2 (for PBMC isolation) biological safety cabinets. All cells were incubated in a 37° C. incubator with 5% CO2. Cell lines were regularly tested for mycoplasma contamination. For western blot assay, the cells were seeded in 6-well plates. […] The cells were immediately placed on ice and were scraped and collected into 1.5 ml Eppendorf tubes. Cell lysates were incubated on ice for 10 minutes prior to centrifugation at 15,000 g at 4° C. for 15 minutes. The cell pellet was discarded, and supernatant was collected for analysis by quantitative immunoblotting. For long term storage, the supernatant was flash frozen and stored at −80° C. Protein concentrations of cell lysates were determined using the Bradford assay.
# Cell lysates containing a quarter of a volume of 4× NuPAGE LDS sample buffer (NP0007) supplemented with 5% β-mercaptoethanol, were heated at 95° C. for 5 minutes. 15 to 20 μg of samples were loaded onto pre-cast 4-12% Bis-Tris midi 20W or 26W gels (Thermofisher Scientific®, Cat #WG1402BOX or WG1403BOX) and resolved at 130 V for 2 hours with NuPAGE MOPS SDS running buffer (Thermofisher Scientific® Cat #NP0001-02). Proteins were electrophoretically transferred onto a 0.45 μm nitrocellulose membrane (GE Healthcare, Amersham Protran® Supported 0.45 mm NC) at 90 V for 90 min on ice in transfer buffer (48 mM Tris base and 39 mM glycine supplemented with 20% methanol). The transferred membrane was blocked with 5% (w/v) skim milk powder dissolved in tris-buffered saline with tween (TBS-T) (50 mM Tris base, 150 mM sodium chloride (NaCl), 0.1% (v/v) Tween-20) at room temperature for 1 hour.
Structure (SMILES),inhibition at 1 µM (Rab10 pThr73 [1]; 1 μM/4 h treatment) [%],inhibition at 1 µM (Rab10 pThr73 [1]; 1 μM/24 h treatment) [%],inhibition at 0.033 µM (Rab10 pThr73 [2]; 33 nM/4 h treatment) [%],inhibition at 0.033 µM (Rab10 pThr73 [2]; 33 nM/24 h treatment) [%],inhibition at 1 µM (Rab10 pThr73 [2]; 1 μM/4 h treatment) [%],inhibition at 1 µM (Rab10 pThr73 [2]; 1 μM/24 h treatment) [%],inhibition at 0.033 µM (Rab10 pThr73 [3]; 33 nM/4 h treatment) [%],inhibition at 0.033 µM (Rab10 pThr73 [3]; 33 nM/24 h treatment) [%]
"CNc1nc(Nc2ccc(C(=O)N3CCN(CCCSC(C)(C)[C@H](NC(=O)C4(F)CC4)C(=O)N4C[C@H](O)C[C@H]4C(=O)NCc4ccc(-c5scnc5C)cc4)CC3)cc2OC)ncc1C(F)(F)F [XL01072, (2S,4R)-1-((R)-2-(1-fluorocyclopropane-1-carboxamido)-3-((3-(4-(3-methoxy-4-((4-(methylamino)-5-(trifluoromethyl)pyrimidin-2-yl)amino)benzoyl)piperazin-1-yl)propyl)thio)-3-methylbutanoyl)-4-hydroxy-N-(4-(4-methylthiazol-5-yl)benzyl)pyrrolidine-2-carboxamide]",20 to 100,10 to 100,0 to 40,0 to 60,10 to 95,30 to 100,0 to 70,0 to 90
"CNc1nc(Nc2ccc(C(=O)N3CCN(CC#CCSC(C)(C)[C@H](NC(=O)C4(F)CC4)C(=O)N4C[C@H](O)C[C@H]4C(=O)NCc4ccc(-c5scnc5C)cc4)CC3)cc2OC)ncc1Cl [XL01076, (2S,4R)-1-((R)-3-((4-(4-(4-((5-chloro-4-(methylamino)pyrimidin-2-yl)amino)-3 methoxybenzoyl)piperazin-1-yl)but-2-yn-1-yl)thio)-2-(1-fluorocyclopropane-1-carboxamido)-3-methylbutanoyl)-4-hydroxy-N-(4-(4-methylthiazol-5-yl)benzyl)pyrrolidine-2-carboxamide]",20 to 100,10 to 100,0 to 40,0 to 60,10 to 95,30 to 100,0 to 70,0 to 90
"CNc1nc(Nc2ccc(C(=O)N3CCN(CCOCCOCCOc4cc(-c5scnc5C)ccc4CNC(=O)[C@@H]4C[C@@H](O)CN4C(=O)[C@@H](NC(=O)C4(F)CC4)C(C)(C)C)CC3)cc2OC)ncc1Cl [SD12, (2S,4R)—N-(2-(2-(2-(2-(4-(4-((5-chloro-4-(methylamino)pyrimidin-2-yl)amino)-3-methoxybenzoyl)piperazin-1-yl)ethoxy)ethoxy)ethoxy)-4-(4-methylthiazol-5-yl)benzyl)-1-((S)-2-(1-fluorocyclopropane-1-carboxamido)-3,3-dimethylbutanoyl)-4-hydroxypyrrolidine-2-carboxamide]",30 to 95,30 to 100,0 to 25,10 to 40,18 to 90,30 to 90,0 to 60,0 to 70
"CNc1nc(Nc2ccc(C(=O)N3CCN(C[C@H](C)SC(C)(C)[C@H](NC(=O)C4(F)CC4)C(=O)N4C[C@H](O)C[C@H]4C(=O)NCc4ccc(-c5scnc5C)cc4)CC3)cc2OC)ncc1Cl [XL01140, (2S,4R)-1-((R)-3-(((S)-1-(4-(4-((5-chloro-4-(methylamino)pyrimidin-2-yl)amino)-3-methoxybenzoyl)piperazin-1-yl)propan-2-yl)thio)-2-(1-fluorocyclopropane-1-carboxamido)-3-methylbutanoyl)-4-hydroxy-N-(4-(4-methylthiazol-5-yl)benzyl)pyrrolidine-2-carboxamide]",20 to 100,10 to 100,0 to 40,0 to 60,10 to 95,30 to 100,0 to 70,0 to 90
"CNc1nc(Nc2ccc(C(=O)N3CCN(CCCOc4cc(-c5scnc5C)ccc4CNC(=O)[C@@H]4C[C@@H](O)CN4C(=O)[C@@H](NC(=O)C4(F)CC4)C(C)(C)C)CC3)cc2OC)ncc1Cl [SD13, (2S,4R)—N-(2-(3-(4-(4-((5-chloro-4-(methylamino)pyrimidin-2-yl)amino)-3-methoxybenzoyl)piperazin-1-yl)propoxy)-4-(4-methylthiazol-5-yl)benzyl)-1-((S)-2-(1-fluorocyclopropane-1-carboxamido)-3,3-dimethylbutanoyl)-4-hydroxypyrrolidine-2-carboxamide]",30 to 95,30 to 100,0 to 25,10 to 40,18 to 90,30 to 90,0 to 60,0 to 70
"CNc1nc(Nc2ccc(OCCOCCCSC(C)(C)[C@@H](NC(=O)C3(F)CC3)C(=O)N3C[C@H](O)C[C@H]3C(=O)NCc3ccc(-c4scnc4C)cc3)cc2OC)ncc1Cl [XL01149, (2S,4R)-1-((S)-3-((3-(2-(4-((5-chloro-4-(methylamino)pyrimidin-2-yl)amino)-3-methoxyphenoxy)ethoxy)propyl)thio)-2-(1-fluorocyclopropane-1-carboxamido)-3-methylbutanoyl)-4-hydroxy-N-(4-(4-methylthiazol-5-yl)benzyl)pyrrolidine-2-carboxamide]",20 to 100,10 to 100,0 to 40,0 to 60,10 to 95,30 to 100,0 to 70,0 to 90

# Source: patent publication US20260001875A1, “AMINOPYRIMIDINYL DERIVATIVES FOR THE TREATMENT OF PARKINSON'S DISEASE” (UNIVERSITY OF DUNDEE, priority 2022, published 2026)
